Test: Adverse events by CTCAE grade and frequency, all dosing cohorts
Assay type: in vivo, human
Excerpt: Patients were enrolled into 1 of 2 parallel, independently operating, dose-escalation dosing cohorts with Form B of Compound II administered continuously either once daily (QD) or twice daily (BID) with food with fixed-dose fulvestrant (intramuscularly every 14 days for the first three injections and then every 28 days). Pre- or perimenopausal patients also received goserelin for the duration of study treatment. A […] agonist was started at least 28 days before the first dose of Form B, and those patients who were taking another LHRH agonist were switched to goserelin on Day 1. Patients were split into […] cohorts providing once a day (QD) dosing of 200 mg, 300 mg, 400 mg, 500 mg, or 650 mg of Form B, or twice a day (BID) dosing of 100 mg, 150 mg, or 200 mg of Form B. The second dose in BID cohorts was not administered in the evening until at least 12 hours after the initial morning dose of Form B. The dosing cohorts for Form B of Compound II are provided in Table 1.

[1] = Dose 100 mg BID, adverse event frequency
[2] = Dose 150 mg BID, adverse event frequency
[3] = Dose 200 mg BID, adverse event frequency
[4] = Dose 200 mg QD, adverse event frequency
[5] = Dose 300 mg QD, adverse event frequency
[6] = Dose 400 mg QD, adverse event frequency
[7] = Dose 500 mg QD, adverse event frequency
[8] = Dose 650 mg QD, adverse event frequency
[9] = Total, all dosing cohorts, All Grades, frequency
[10] = Total, all dosing cohorts, CTCAE Grade 1, frequency
[11] = Total, all dosing cohorts, CTCAE Grade 2, frequency
[12] = Total, all dosing cohorts, CTCAE Grade 3, frequency
[13] = Total, all dosing cohorts, CTCAE Grade 4, frequency

Structure (SMILES): CC(C)N1CCN(c2ccc(Nc3ncc4cc5n(c4n3)C3(CCCCC3)CNC5=O)nc2)CC1 [Form B]
- ALT increase [1]: 0
- AST increased [1]: 0
- Anemia [1]: 2
- BUN increased [1]: 0
- Diarrhea [1]: 1
- Fatigue [1]: 1
- Febrile neutropenia [1]: 0
- GGT increased [1]: 0
- Hematuria [1]: 1
- Leukopenia [1]: 3
- Lymphopenia [1]: 0
- Metrorrhagia [1]: 0
- Nausea [1]: 2
- Neutropenia [1]: 4
- SCr increased [1]: 1
- Stomatitis [1]: 0
- Thrombocytopenia [1]: 1
- Vomiting [1]: 0
- ALT increase [2]: 0
- AST increased [2]: 0
- Anemia [2]: 1
- BUN increased [2]: 0
- Diarrhea [2]: 2
- Fatigue [2]: 1
- Febrile neutropenia [2]: 1
- GGT increased [2]: 0
- Hematuria [2]: 1
- Leukopenia [2]: 3
- Lymphopenia [2]: 0
- Metrorrhagia [2]: 1
- Nausea [2]: 1
- Neutropenia [2]: 3
- SCr increased [2]: 0
- Stomatitis [2]: 1
- Thrombocytopenia [2]: 1
- Vomiting [2]: 1
- ALT increase [3]: 0
- AST increased [3]: 0
- Anemia [3]: 0
- BUN increased [3]: 0
- Diarrhea [3]: 1
- Fatigue [3]: 1
- Febrile neutropenia [3]: 0
- GGT increased [3]: 0
- Hematuria [3]: 0
- Leukopenia [3]: 1
- Lymphopenia [3]: 0
- Metrorrhagia [3]: 0
- Nausea [3]: 1
- Neutropenia [3]: 2
- SCr increased [3]: 0
- Stomatitis [3]: 0
- Thrombocytopenia [3]: 0
- Vomiting [3]: 0
- ALT increase [4]: 0
- AST increased [4]: 0
- Anemia [4]: 3
- BUN increased [4]: 1
- Diarrhea [4]: 1
- Fatigue [4]: 0
- Febrile neutropenia [4]: 0
- GGT increased [4]: 0
- Hematuria [4]: 1
- Leukopenia [4]: 4
- Lymphopenia [4]: 1
- Metrorrhagia [4]: 0
- Nausea [4]: 0
- Neutropenia [4]: 4
- SCr increased [4]: 0
- Stomatitis [4]: 0
- Thrombocytopenia [4]: 0
- Vomiting [4]: 0
- ALT increase [5]: 0
- AST increased [5]: 0
- Anemia [5]: 1
- BUN increased [5]: 1
- Diarrhea [5]: 2
- Fatigue [5]: 1
- Febrile neutropenia [5]: 0
- GGT increased [5]: 0
- Hematuria [5]: 1
- Leukopenia [5]: 2
- Lymphopenia [5]: 0
- Metrorrhagia [5]: 0
- Nausea [5]: 2
- Neutropenia [5]: 3
- SCr increased [5]: 0
- Stomatitis [5]: 0
- Thrombocytopenia [5]: 1
- Vomiting [5]: 2
- ALT increase [6]: 1
- AST increased [6]: 1
- Anemia [6]: 2
- BUN increased [6]: 0
- Diarrhea [6]: 2
- Fatigue [6]: 2
- Febrile neutropenia [6]: 0
- GGT increased [6]: 1
- Hematuria [6]: 1
- Leukopenia [6]: 0
- Lymphopenia [6]: 0
- Metrorrhagia [6]: 0
- Nausea [6]: 3
- Neutropenia [6]: 3
- SCr increased [6]: 0
- Stomatitis [6]: 0
- Thrombocytopenia [6]: 1
- Vomiting [6]: 3
- ALT increase [7]: 1
- AST increased [7]: 0
- Anemia [7]: 2
- BUN increased [7]: 0
- Diarrhea [7]: 1
- Fatigue [7]: 1
- Febrile neutropenia [7]: 0
- GGT increased [7]: 0
- Hematuria [7]: 0
- Leukopenia [7]: 1
- Lymphopenia [7]: 0
- Metrorrhagia [7]: 0
- Nausea [7]: 3
- Neutropenia [7]: 3
- SCr increased [7]: 1
- Stomatitis [7]: 0
- Thrombocytopenia [7]: 3
- Vomiting [7]: 1
- ALT increase [8]: 0
- AST increased [8]: 0
- Anemia [8]: 0
- BUN increased [8]: 0
- Diarrhea [8]: 4
- Fatigue [8]: 1
- Febrile neutropenia [8]: 0
- GGT increased [8]: 0
- Hematuria [8]: 0
- Leukopenia [8]: 2
- Lymphopenia [8]: 0
- Metrorrhagia [8]: 0
- Nausea [8]: 3
- Neutropenia [8]: 2
- SCr increased [8]: 0
- Stomatitis [8]: 0
- Thrombocytopenia [8]: 0
- Vomiting [8]: 5
- ALT increase [9]: 2
- AST increased [9]: 1
- Anemia [9]: 11
- BUN increased [9]: 2
- Diarrhea [9]: 14
- Fatigue [9]: 8
- Febrile neutropenia [9]: 1
- GGT increased [9]: 1
- Hematuria [9]: 5
- Leukopenia [9]: 16
- Lymphopenia [9]: 1
- Metrorrhagia [9]: 1
- Nausea [9]: 15
- Neutropenia [9]: 24
- SCr increased [9]: 2
- Stomatitis [9]: 1
- Thrombocytopenia [9]: 7
- Vomiting [9]: 12
- ALT increase [10]: 1
- AST increased [10]: 0
- Anemia [10]: 3
- BUN increased [10]: 2
- Diarrhea [10]: 6
- Fatigue [10]: 5
- Febrile neutropenia [10]: 0
- GGT increased [10]: 0
- Hematuria [10]: 5
- Leukopenia [10]: 4
- Lymphopenia [10]: 0
- Metrorrhagia [10]: 0
- Nausea [10]: 8
- Neutropenia [10]: 6
- SCr increased [10]: 2
- Stomatitis [10]: 0
- Thrombocytopenia [10]: 5
- Vomiting [10]: 5
- ALT increase [11]: 1
- AST increased [11]: 1
- Anemia [11]: 2
- BUN increased [11]: 0
- Diarrhea [11]: 8
- Fatigue [11]: 3
- Febrile neutropenia [11]: 0
- GGT increased [11]: 1
- Hematuria [11]: 0
- Leukopenia [11]: 9
- Lymphopenia [11]: 1
- Metrorrhagia [11]: 1
- Nausea [11]: 7
- Neutropenia [11]: 7
- SCr increased [11]: 0
- Stomatitis [11]: 1
- Thrombocytopenia [11]: 2
- Vomiting [11]: 3
- ALT increase [12]: 0
- AST increased [12]: 0
- Anemia [12]: 1
- BUN increased [12]: 0
- Diarrhea [12]: 0
- Fatigue [12]: 0
- Febrile neutropenia [12]: 1
- GGT increased [12]: 0
- Hematuria [12]: 0
- Leukopenia [12]: 3
- Lymphopenia [12]: 0
- Metrorrhagia [12]: 0
- Nausea [12]: 0
- Neutropenia [12]: 9
- SCr increased [12]: 0
- Stomatitis [12]: 0
- Thrombocytopenia [12]: 0
- Vomiting [12]: 0
- ALT increase [13]: 0
- AST increased [13]: 0
- Anemia [13]: 0
- BUN increased [13]: 0
- Diarrhea [13]: 0
- Fatigue [13]: 0
- Febrile neutropenia [13]: 0
- GGT increased [13]: 0
- Hematuria [13]: 0
- Leukopenia [13]: 0
- Lymphopenia [13]: 0
- Metrorrhagia [13]: 0
- Nausea [13]: 0
- Neutropenia [13]: 2
- SCr increased [13]: 0
- Stomatitis [13]: 0
- Thrombocytopenia [13]: 0
- Vomiting [13]: 0
